# According to patent US20250009696A1, “METHODS OF CANCER TREATMENT VIA REGULATED FERROPTOSIS” (Memorial Sloan Kettering Cancer Center, priority 2017, published 2025):
# Columns and labels:
# [1] = tested on: LNCAP prostate cancer cells; assay: Western blot of PSMA and AR expression after enzalutamide exposure in vitro; format: cell-based; conditions: 10 μM continuously for 15 days
# Excerpt: At the conclusion of exposure, cells were collected and the expression levels of PSMA and AR were examined via Western blot.
# [2] = tested on: LNCAP xenografts; assay: PSMA expression in xenografts after daily enzalutamide; format: in vivo, mice; conditions: 10 mg/kg/day, oral gavage
# [3] = tested on: LNCAP-AR prostate cancer cells; assay: Western blot of PSMA and AR expression after enzalutamide exposure in vitro; format: cell-based; conditions: 10 μM over 15 days
# [4] = tested on: PC-3 prostate cancer cells; assay: as above; format: cell-based; conditions: 10 μM for 15 days
# [5] = tested on: HT1080 cells; assay: Cell rupture in response to other inducers of ferroptosis with osmoprotectants; format: cell-based; conditions: necrotic cell death induced by hydrogen peroxide, FIG. 1F
# Excerpt: (§1) The use of osmo-protectants (FIG. 1B) of increasing sizes can indicate the presence of pores in the membrane that would be required for cell rupture.
# [6] = tested on: cells treated with FAC and BSO; assay: Cell swelling and cell lysis (LDH release) in FAC and BSO-induced ferroptosis; format: cell-based; conditions: for cell lysis / cell rupture (release of lactate dehydrogenase, LDH): 48 hours of treatment with FAC and BSO (400 μM), osmoprotectant 30 mM
# Experimental: The effect on cell lysis is shown by reduced release of lactate dehydrogenase (LDH), a measure of necrosis.
# To investigate if the ferroptotic rupture of cells might be an event that is regulated by a pore, experiments were performed with osmo-protectants in the cell culture medium. Osmo-protectants are large osmolytes that when added to sufficient concentrations outside of cells (30 mM), buffer potential ion imbalances caused by pore formation that would otherwise lead to membrane rupture. The loss of ion and small molecule balances across the plasma membrane due to the opening of a pore would lead to hypo-osmotic stress due to the large molecules and organelles that cannot cross the intact membrane.
# as §1
# [7] = tested on: cells treated with FAC and BSO; assay: Spreading of ferroptosis, cell rounding and calcium signal with inhibitors or osmoprotectants; format: cell-based
# Experimental: FIG. 3A depicts images that show cell colony prior to (left) and 12 hours after (right) treatment with liproxstatin-1. Note cell death involving wave-like spreading that was induced by FAC and BSO, and started prior to liproxstatin-1 addition, was inhibited, as cells that were alive (bottom right half of colony) stayed alive for 12 hours.
# Right images show computational quantifications of the spreading of cell rounding (top), which remains significant in the presence of PEG1450 (***P=0.004) (see histogram, bottom). Cells are pseudocolored in top image to represent the relative timing of cell rounding.
# Relative times are shown as minutes (min).
# It was observed that ferroptosis involves a pore-forming activity and, also, a spreading activity. […] As cell rounding or swelling may be associated with calcium influx into cells, cells expressing the genetically-encoded calcium sensor GCaMP, which emits GFP fluorescence upon calcium exposure, were treated with FAC and BSO to induce ferroptosis in the presence of PEG3350.
# [8] = Computational analysis of cell death spreading (time-lapse microscopy, random trials); format: cell-based; conditions: experimentally-induced apoptosis; cell line not stated
# Experimental: Nuclei are circled and color-coded to represent the relative timing of cell death, determined by time-lapse microscopy. The relative positioning of cell deaths occurring in successive frames of a time-lapse movie are calculated by measuring the distance between newly occurring deaths and their nearest neighbor of any previous deaths, for example death 2 to death 1, or distance a. The mean distance of all deaths in a movie is calculated as distances (a+b+c+ . . . +n)/n.
# It was observed that ferroptosis involves the spreading of cell death between adjacent cells in cell culture in wave-like or synchronous patterns. […] To study cell death spreading, a computational analysis was designed that allows for quantification of the random or non-random nature of observed patterns of cell death in a population. As shown in FIGS. 2A-2D, this analysis utilizes time-lapse microscopic imaging of cell death, for cells cultured in the presence of Sytox green or Sytox orange dyes (or propidium iodide), which enter the nucleus of necrotic cells and emit green or red fluorescence (FIG. 2A). […] In addition to the actual data set calculated for each field of view, randomized trials are then also performed 1000 times for each microscopic field, to generate a random set of possible mean distances that account for the particular arrangements of cells in each field (FIG. 2B). […]
structure (smiles),measurement,setting,value
CNC(=O)c1ccc(N2C(=S)N(c3ccc(C#N)c(C(F)(F)F)c3)C(=O)C2(C)C)cc1F [enzalutamide],AR expression (Western blot),[1],transient increase in AR expression is also observed from Day 7 to Day 10
same,PSMA expression (Western blot),[1],"increase in PSMA expression occurs on, or around, Day 7 of exposure"
same,PSMA expression in LNCAP xenografts,[2],increase in PSMA expression at Day 5
same,PSMA expression in tumor sections (immunofluorescence staining),[2],increase in PSMA expression at Day 5
same,AR expression (Western blot),[3],clear increase in AR expression is observed from Day 3 onward
same,PSMA expression (Western blot),[3],time-dependent increase in PSMA expression
same,AR expression (Western blot),[4],negative for AR across all tested time points
same,PSMA expression (Western blot),[4],lack of PSMA expression at all time points
OO [hydrogen peroxide],regulation of necrotic cell death by PEG1450 or PEG3350,[5],did not involve similar regulation
OC[C@H]1O[C@@](CO)(O[C@H]2O[C@H](CO)[C@@H](O)[C@H](O)[C@H]2O)[C@@H](O)[C@@H]1O [sucrose],"cell lysis / cell rupture (release of lactate dehydrogenase, LDH)",[6],did not
Clc1cccc(CN=C2Nc3ccccc3NC23CCNCC3)c1 [liproxstatin-1],spreading of cell rounding / morphological changes,[7]; FAC and BSO (400 μM) in the presence of the named agent,blocked
same,wave-like spreading of ferroptosis,"[7]; FAC and BSO, agent added after initiation of ferroptosis",disrupted wave-like spreading
C[C@@H]1C[C@@H]([C@H](O)CC2CC(=O)NC(=O)C2)C(=O)[C@@H](C)C1 [cyclohexamide],observed mean distance between cell deaths versus random trials,[8],falls within the random trials
COc1nccnc1NS(=O)(=O)c1ccc(NC(=O)/C=C/c2ccc([N+](=O)[O-])s2)cc1 [necrosulfonamide],ferroptotic cell rupture,[6]; treatment with inhibitor of MLKL,did not affect ferroptotic cell rupture
OC[C@H]1O[C@H](OC[C@H]2O[C@H](O[C@]3(CO)O[C@H](CO)[C@@H](O)[C@@H]3O)[C@H](O)[C@@H](O)[C@@H]2O)[C@H](O)[C@@H](O)[C@H]1O [raffinose],"cell lysis / cell rupture (release of lactate dehydrogenase, LDH)",[6],did not
